From ChEMBL document CHEMBL1201862, “PubChem BioAssay data set” (2004)
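Growth conditions: 96-well plates. Treatment: test compound, 48 hours, 5 concentrations. Analysis: linear interpolation between bracketing concentrations; unreached endpoints set to highest concentration. GI50 = concentration required for 50% inhibition of growth.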 The source made the active and inactive calls. Cut-off read from the data, not from the text of the source: active = GI50 up to about 1.1 µM and inactive = higher.

Legend:
Assay in all cases: NCI tumour cell line growth inhibition, 48 h
NCI/ADR-RES = tested on: NCI/ADR-RES
OVCAR-5 = tested on: OVCAR-5
SNB-19 = tested on: SNB-19
HCT-116 = tested on: HCT-116
TK-10 = tested on: TK-10
CCRF-CEM = tested on: CCRF-CEM
SK-MEL-28 = tested on: SK-MEL-28
RPMI-8226 = tested on: RPMI-8226
MCF7 = tested on: MCF7
SN12C = tested on: SN12C
U-251 = tested on: U-251
SF-295 = tested on: SF-295
SF-268 = tested on: SF-268
786-0 = tested on: 786-0
COLO 205 = tested on: COLO 205
HCT-15 = tested on: HCT-15
HOP-62 = tested on: HOP-62
SK-OV-3 = tested on: SK-OV-3
HOP-92 = tested on: HOP-92
SNB-75 = tested on: SNB-75

Row | SMILES | GI50 (NCI/ADR-RES) | GI50 (OVCAR-5) | GI50 (SNB-19) | GI50 (HCT-116) | GI50 (TK-10) | GI50 (CCRF-CEM) | GI50 (SK-MEL-28) | GI50 (RPMI-8226) | GI50 (MCF7) | GI50 (SN12C) | GI50 (U-251) | GI50 (SF-295) | GI50 (SF-268) | GI50 (786-0) | GI50 (COLO 205) | GI50 (HCT-15) | GI50 (HOP-62) | GI50 (SK-OV-3) | GI50 (HOP-92) | GI50 (SNB-75)
1 | O=C1c2ccccc2C(=O)c2c1ccc(C(=O)O)c2-c1ccc2ccccc2c1 | 30.8 µM (inactive) | 22.5 µM (inactive) | 34.7 µM (inactive) | 20.7 µM (inactive) | 61.2 µM (inactive) | 23.3 µM (inactive) | 40.2 µM (inactive) | 27.7 µM (inactive) | 3.42 µM (inactive) | 29.1 µM (inactive) | 21.9 µM (inactive) | 28.5 µM (inactive) | 28 µM (inactive) | 28.2 µM (inactive) | 10.4 µM (inactive) | 19.6 µM | 32.2 µM (inactive) | 31 µM (inactive) | – | –
2 | COc1cc2c(c(N)c1OC)C(=O)/C(=C/c1cc(C)c(O)c(C)c1)C2 | 0.0104 µM (active) | 0.693 µM (active) | < 0.01 µM (active) | < 0.01 µM (active) | > 76 µM (inactive) | < 0.01 µM (active) | – | < 0.01 µM (active) | < 0.01 µM (active) | < 0.01 µM (active) | < 0.0164 µM (active) | 0.0562 µM (active) | < 0.01 µM (active) | < 0.01 µM (active) | 5.6 µM (inactive) | < 0.01 µM | < 0.0176 µM (active) | < 0.01 µM (active) | > 100 µM (inactive) | –
3 | COc1ccc(/C=N/NC(=O)O)cc1 | > 100 µM (inactive) | > 100 µM (inactive) | > 100 µM (inactive) | > 100 µM (inactive) | > 100 µM (inactive) | – | > 100 µM (inactive) | > 100 µM (inactive) | > 100 µM (inactive) | > 100 µM (inactive) | > 100 µM (inactive) | > 100 µM (inactive) | – | > 100 µM (inactive) | > 100 µM (inactive) | > 100 µM | > 100 µM (inactive) | > 100 µM (inactive) | – | > 100 µM (inactive)
4 | O=C(O)c1ccccc1/C=N\N=C1NCCCCN1 | > 100 µM (inactive) | > 100 µM (inactive) | > 100 µM (inactive) | > 100 µM (inactive) | > 100 µM (inactive) | > 100 µM (inactive) | – | > 100 µM (inactive) | > 100 µM (inactive) | > 100 µM (inactive) | > 100 µM (inactive) | > 100 µM (inactive) | > 100 µM (inactive) | > 100 µM (inactive) | > 100 µM (inactive) | > 100 µM | > 100 µM (inactive) | > 100 µM (inactive) | – | > 100 µM (inactive)
5 | NC1CC(=O)c2c(Br)csc21 (centres undefined) | > 100 µM (inactive) | 63.7 µM (inactive) | 36.3 µM (inactive) | 46.8 µM (inactive) | 32.5 µM (inactive) | 42.7 µM (inactive) | 25.9 µM (inactive) | 38.5 µM (inactive) | 49 µM (inactive) | 27 µM (inactive) | 10 µM (inactive) | – | 39.3 µM (inactive) | 82 µM (inactive) | 58.1 µM (inactive) | 35.4 µM | 49.8 µM (inactive) | > 100 µM (inactive) | – | 96.2 µM (inactive)
6 | C[N+]1([O-])[C@H]2CC(OC(=O)[C@H](CO)c3ccccc3)C[C@H]1[C@H]1O[C@H]12 (some centres undefined) | > 100 µM (inactive) | > 100 µM (inactive) | > 100 µM (inactive) | > 100 µM (inactive) | > 100 µM (inactive) | 21.2 µM (inactive) | > 100 µM (inactive) | > 100 µM (inactive) | > 100 µM (inactive) | > 100 µM (inactive) | > 100 µM (inactive) | > 100 µM (inactive) | – | > 100 µM (inactive) | > 100 µM (inactive) | > 100 µM | > 100 µM (inactive) | > 100 µM (inactive) | – | > 100 µM (inactive)
7 | CC12CC(=O)C3C(C(=O)C1)C32C (centres undefined) | > 100 µM (inactive) | > 100 µM (inactive) | > 100 µM (inactive) | > 100 µM (inactive) | > 100 µM (inactive) | > 100 µM (inactive) | > 100 µM (inactive) | > 100 µM (inactive) | > 100 µM (inactive) | > 100 µM (inactive) | > 100 µM (inactive) | > 100 µM (inactive) | > 100 µM (inactive) | > 100 µM (inactive) | > 100 µM (inactive) | > 100 µM | > 100 µM (inactive) | > 100 µM (inactive) | – | 45.3 µM (inactive)
8 | CS(=O)(=O)OCC1CCCCCCCCCCC12SCCCS2 (centres undefined) | > 100 µM (inactive) | > 100 µM (inactive) | > 100 µM (inactive) | > 100 µM (inactive) | > 100 µM (inactive) | > 100 µM (inactive) | > 100 µM (inactive) | – | > 100 µM (inactive) | > 100 µM (inactive) | > 100 µM (inactive) | > 100 µM (inactive) | > 100 µM (inactive) | > 100 µM (inactive) | > 100 µM (inactive) | > 100 µM | > 100 µM (inactive) | > 100 µM (inactive) | > 100 µM (inactive) | –
9 | O=c1[nH]nc(NCCc2ccccc2)c2nnn(Cc3ccccc3)c12 | > 100 µM (inactive) | > 100 µM (inactive) | > 100 µM (inactive) | > 100 µM (inactive) | > 100 µM (inactive) | > 100 µM (inactive) | > 100 µM (inactive) | > 100 µM (inactive) | > 100 µM (inactive) | > 100 µM (inactive) | > 100 µM (inactive) | > 100 µM (inactive) | > 100 µM (inactive) | > 100 µM (inactive) | > 100 µM (inactive) | > 100 µM | > 100 µM (inactive) | – | – | > 100 µM (inactive)
10 | Cc1ccc(OCC2=NN3C(=O)/C(=C\c4ccc([N+](=O)[O-])o4)SC3N2)cc1 (centres undefined) | 9.04 µM (inactive) | 19.2 µM (inactive) | 17.8 µM (inactive) | 3.63 µM (inactive) | 16.5 µM (inactive) | 2.99 µM (inactive) | 12.7 µM (inactive) | 2.16 µM (inactive) | – | 16.9 µM (inactive) | 15.8 µM (inactive) | 14.8 µM (inactive) | 4.07 µM (inactive) | 10.2 µM (inactive) | 3.19 µM (inactive) | 2.42 µM | 16.6 µM (inactive) | 16.3 µM (inactive) | 2.8 µM (inactive) | 15.9 µM (inactive)
11 | Nn1c(S)nnc1C12CC3CC(CC(C3)C1)C2 | > 100 µM (inactive) | > 100 µM (inactive) | > 100 µM (inactive) | > 100 µM (inactive) | > 100 µM (inactive) | > 100 µM (inactive) | > 100 µM (inactive) | > 100 µM (inactive) | – | > 100 µM (inactive) | > 100 µM (inactive) | > 100 µM (inactive) | > 100 µM (inactive) | > 100 µM (inactive) | > 100 µM (inactive) | > 100 µM | > 100 µM (inactive) | > 100 µM (inactive) | > 100 µM (inactive) | > 100 µM (inactive)
12 | O=C(O)CCCN1CCCCC1 | > 100 µM (inactive) | > 100 µM (inactive) | > 100 µM (inactive) | > 100 µM (inactive) | > 100 µM (inactive) | > 100 µM (inactive) | > 100 µM (inactive) | > 100 µM (inactive) | – | > 100 µM (inactive) | > 100 µM (inactive) | > 100 µM (inactive) | > 100 µM (inactive) | > 100 µM (inactive) | – | > 100 µM | > 100 µM (inactive) | – | > 100 µM (inactive) | > 100 µM (inactive)
13 | O=[N+]([O-])c1sc2ccc(Cl)cc2c1Nc1ccc(Cl)cc1 | > 100 µM (inactive) | > 100 µM (inactive) | > 100 µM (inactive) | – | > 100 µM (inactive) | > 100 µM (inactive) | > 100 µM (inactive) | > 100 µM (inactive) | > 100 µM (inactive) | > 100 µM (inactive) | > 100 µM (inactive) | > 100 µM (inactive) | > 100 µM (inactive) | > 100 µM (inactive) | > 100 µM (inactive) | > 100 µM | > 100 µM (inactive) | > 100 µM (inactive) | – | > 100 µM (inactive)
14 | O=C(O)CCC(=O)Nc1ccc2c(c1)S(=O)(=O)N(CC(=O)O)C2=O | > 100 µM (inactive) | > 100 µM (inactive) | > 100 µM (inactive) | > 100 µM (inactive) | > 100 µM (inactive) | > 100 µM (inactive) | > 100 µM (inactive) | > 100 µM (inactive) | > 100 µM (inactive) | > 100 µM (inactive) | > 100 µM (inactive) | > 100 µM (inactive) | – | > 100 µM (inactive) | > 100 µM (inactive) | > 100 µM | > 100 µM (inactive) | > 100 µM (inactive) | > 100 µM (inactive) | –
15 | C/C1=C/C2OC(=O)C3(C)C2C(CC2(C)OC1=CC2=O)OC3(O)C(C)C (centres undefined) | 59 µM (inactive) | 34.8 µM (inactive) | 42.5 µM (inactive) | > 61.1 µM (inactive) | 41.5 µM (inactive) | 23.6 µM (inactive) | 40.5 µM (inactive) | 21.8 µM (inactive) | 43.7 µM (inactive) | 31.4 µM (inactive) | 23.9 µM (inactive) | 29.4 µM (inactive) | 38.9 µM (inactive) | 26.1 µM (inactive) | 36.6 µM (inactive) | 20.3 µM | 41.6 µM (inactive) | 46 µM (inactive) | – | > 61.1 µM (inactive)
16 | O=C(Nc1ccccc1)N1CCN(C(=O)Nc2ccccc2)C1=S | 41.9 µM (inactive) | – | – | 47.6 µM (inactive) | 38.5 µM (inactive) | 97.7 µM (inactive) | > 100 µM (inactive) | > 100 µM (inactive) | – | 59.3 µM (inactive) | > 100 µM (inactive) | 23.4 µM (inactive) | 20 µM (inactive) | 37 µM (inactive) | > 100 µM (inactive) | 88.5 µM | 25.2 µM (inactive) | 28.6 µM (inactive) | 29 µM (inactive) | 17.9 µM (inactive)
